Where a name gives a salt, the structure may show the parent alone. Read-outs that look alike come from different tables or passages of the source. Residues, ends and D or L forms follow the SMILES beside them. No end group written: not given here. *: point of attachment. Doxorubicin(3'-N) = COc1cccc2c1C(=O)c1c(O)c3c(c(O)c1C2=O)C[C@@](O)(C(=O)CO)C[C@@H]3O[C@H]1C[C@H](N*)[C@H](O)[C@H](C)O1; acyl = not defined here; DOX = doxorubicin
Tests used:
[1] = tested on: HT29 cells; assay: cells; format: cell-based, human; conditions: 48 hours; for IC50: CCK-8
Method: (§1) In addition, cytotoxicity was investigated using CCK-8 (cell counting kit-8). Specifically, 1×10^4 HT29 cells and 0.5×10^4 H9C2 cells were seeded onto a 96-well plate, respectively, and stabilized by culturing for 24 hours. A single administration group, drug administration groups and a control group were obtained by administering the anticancer agent (DOX) alone (0.01 to 100 μM) or together with the prodrug nanoparticles of Example 4 and Comparative Example 3 (0.01 to 100 μM), respectively, to each well and incubating at 37° C. for 48 hours. After the incubation was completed, a culture medium containing a 10% CCK-8 solution was added. After conducting reaction for 20 minutes, analysis was made with a microplate reader at a wavelength of 450 nm. After plotting cell survivability depending on concentration, IC50 (half-maximal inhibitory concentration) values were obtained for the single administration group, drug administration groups and control group using the GraphPad Prism 8 software (GraphPad Software, San Diego, CA, USA).

[2] = tested on: H9C2 cells; assay: Cytotoxicity CCK-8; format: cell-based, rat; conditions: for IC50: 48 hours, CCK-8, normal cells (cardiomyocytes)
Method: as §1

[3] = tested on: HT29 tumor-bearing BALB/c nu/nu mice; assay: Distribution of prodrug nanoparticles in vivo (fluorescence imaging, ex vivo organs, tissue sections)
Method: After 3, 6 and 9 hours of the drug injection, the test groups were imaged using an IVIS Lumina Series III system. After euthanasia, liver, lung, spleen, kidney, heart and tumor tissues were recovered.
The obtained tissues were sliced into 10 μm-thick sections, which were mounted individually on a slide glass, and washed tice with DPBS. Then, after staining with […] for 20 minutes, fluorescence signals were observed by CLSM.

[4] = tested on: H9C2 cells; assay: Cell-specific activity, DOX fluorescence distribution (CLSM); format: cell-based, rat; conditions: 5 μM, 48 hours
Method: (§2) Then, experiment was performed as follows to analyze specific activity for cells. First, 2×10^5 HT29 cells and 2×10^5 H9C2 cells were seeded onto a glass-bottomed confocal dish, respectively. Cathepsin B-inhibited cells (HT29-Inh) were prepared by pretreating HT29 cells with Z-Phe-Ala-FMK (20 μM) for 24 hours. After stabilizing the cells by culturing for 24 hours, and administering the anticancer agent (DOX) alone (5 μM) or together with the prodrug nanoparticles of Example 4 and Comparative Example 3 (5 μM), respectively, a single administration group, drug administration groups and a control group were obtained by incubating at 37° C. for 48 hours. […] Each group was imaged by CLSM to obtain a fluorescence image, and fluorescence intensity was quantified from the fluorescence image to investigate the distribution of the prodrug nanoparticles using the Image-Pro software (Media Cybernetics, Rockville, MD, USA).

[5] = tested on: Cathepsin B-inhibited cells (HT29-Inh); assay: as above; format: cell-based, human; conditions: HT29-Inh cells (Z-Phe-Ala-FMK 20 μM pretreated), 5 μM, 48 hours
Method: as §2

[6] = tested on: tumor-free BALB/c mice; assay: Toxicity in vivo, single administration; conditions: single i.v. administration
Method: Test groups 9 to 12 were prepared by injecting an anticancer agent (DOX) (3 or 4 mg/kg) or the prodrug nanoparticles of Example 4 (4 or 10 mg/kg based on DOX concentration) once to tumor-free BALB/c mice (5-week-old) via the tail vein (n=5 for each test group).
Tumor volume, body weight and survival rate were measured every day after injection of the drug to the test groups. 8 days later, the mice were euthanized and liver, lung, spleen, kidney, heart and cancer tissues were recovered. Each of the recovered liver, lung, spleen, kidney, heart and cancer tissues was fixed with 4% paraformaldehyde for 15 minutes, embedded in wax, and then sliced to 10 μm-thick sections. Then, after staining with H&E, the morphological damage to the tissues was analyzed by imaging with an optical microscope.
(§3) For evaluation of hematotoxicity, 1 mL of blood was taken from each test group, and blood plasma was separated by centrifuging at 4,500 rpm for 20 minutes. Blood analysis was performed according to the instructions of KNOTUS Co., Ltd. (Incheon, Korea).

[7] = tested on: HT29 tumor-bearing BALB/c nu/nu mice; conditions: mouse, in vivo, iv
Method: (§4) 1×10^7 HT29 cells were subcutaneously injected into the left flank of the 5-week-old male BALB/c nu/nu mice. An animal model of cancer was prepared by breeding the mice until the tumor size grew to about 60 to 80 mm^3.
(§5) Test groups 6 to 8 were prepared by injecting an anticancer agent (DOX) (3 mg/kg) or the prodrug nanoparticles of Example 4 (4 or 10 mg/kg based on DOX concentration) to the animal model of cancer via the tail vein once in 3 days at the same time (n=5 for each test group). The overall treatment period was 26 days, and the number of drug administration was 8 times.
(§6) After the treatment period, tumor volume, body weight and survival rate of each test group were measured every 2 days. After euthanasia, liver, lung, spleen, kidney, heart and cancer tissues were recovered and subjected to histological and TUNEL assay.
(§7) The tumor volume was calculated from the longest diameter×(the shortest diameter)^2×0.53 of the cancer tissue, and a tumor volume larger than 1,000 mm^3 was judged as death.
(§8) For histological analysis, each of the recovered liver, lung, spleen, kidney, heart and cancer tissues was fixed with 4% paraformaldehyde for 15 minutes, embedded in wax, and then sliced to 10 μm-thick sections. Then, after staining with H&E, the morphological damage to the tissues was analyzed by imaging with an optical microscope.
(§9) The cancer tissue was stained by TUNEL (terminal deoxynucleotidyl transferase dUTP nick end labeling) analysis for visualization of the apoptotic region.

[8] = tested on: tumor-free BALB/c mice; conditions: multiple administration; for body weight change: once in 3 days, 8 times
Method: 8 days later, the mice were euthanized and liver, lung, spleen, kidney, heart and cancer tissues were recovered. Each of the recovered liver, lung, spleen, kidney, heart and cancer tissues was fixed with 4% paraformaldehyde for 15 minutes, embedded in wax, and then sliced to 10 μm-thick sections. Then, after staining with H&E, the morphological damage to the tissues was analyzed by imaging with an optical microscope.
as §3

[9] = tested on: HT29 tumor-bearing BALB/c nu/nu mice; assay: Anticancer effect in animal model of cancer
Method: as §4, §5, §6, §7, §8, §9

[10] = Cytotoxicity CCK-8; format: cell-based, rat; conditions: rat, H9C2 cells; at 1 to 100 μM, 48 hours; read-out: survival rate of normal cells
Method: as §1

[11] = tested on: T1, FRRL-DOX conjugate / prodrug nanoparticles of Example 4 (N-acylated Phe-Arg-Arg-Leu conjugated with doxorubicin)
T1 sequence: FRRG

[12] = tested on: HT29 colon cancer cells; assay: Cellular uptake and intranuclear localization (CLSM); format: cell-based, human; conditions: 5 μM
Method: The cellular uptake and intranuclear localization of the prodrug nanoparticles (5 μM) were analyzed using HT29 colon cancer cells. In order to investigate the intracellular behavior and intracellular interaction of the prodrug nanoparticles, 2×10^5 HT29 cells were seeded onto a glass-bottomed confocal dish. After stabilizing the cells by culturing for 24 hours, they were treated with the prodrug nanoparticles of Examples 4 to 6 and Comparative Example 3 (5 μM), and drug administration groups 1, 2 and 3 (FRRL-DOX, FRRLG-DOX, FLRRG-DOX) and a control group (FRRG-DOX) were obtained by incubating at 37° C. for 0, 24 and 48 hours. […] Each group was imaged by CLSM to obtain a fluorescence image, and fluorescence intensity was quantified from the fluorescence image to investigate the distribution of the prodrug nanoparticles using the Image-Pro software (Media Cybernetics, Rockville, MD, USA).

[13] = tested on: HT29 cells; assay: Degradation after cellular uptake (MALDI-TOF of cell filtrate); format: cell-based, human; conditions: 100 μM, 48 hours
Method: In order to further investigate whether the prodrug nanoparticles are degraded after cellular uptake, 1×10^6 HT29 cells were seeded onto a 100-mm cell culture dish and stabilized by culturing for 24 hours. After administering the prodrug nanoparticles of Examples 4 to 6 and Comparative Example 3 (100 μM) to the cells, drug administration groups 1, 2 and 3 (FRRL-DOX, FRRLG-DOX, FLRRG-DOX) and a control group (FRRG-DOX) were obtained by incubating at 37° C. for 48 hours. Each group was washed with PBS and dispersed in distilled water (H2O). The dispersion was filtered through a 0.45-μm syringe filter, and the recovered filtrate was subjected to mass analysis by MALDI-TOF.

[14] = target: lysosome enzymes other than cathepsin B; assay: cell-based or functional assay
[15] = i.v. once in 3 days, test group 6
[16] = test group 4, 4 mg/kg based on DOX

COc1cccc2c1C(=O)c1c(O)c3c(c(O)c1C2=O)C[C@@](O)(C(=O)CO)C[C@@H]3O[C@H]1C[C@H](NC(=O)CNC(=O)[C@H](CCCNC(=N)N)NC(=O)[C@H](CCCNC(=N)N)NC(=O)[C@H](Cc2ccccc2)NC(C)=O)[C@H](O)[C@H](C)O1 [Comparative Example 3] (Ac-FRRG-{Doxorubicin(3'-N)})
IC50 [1]: 14.1 µM | IC50 [2]: 158 µM | accumulation in liver tissues relative to cancer tissues ([3]; test group 2, 4 mg/kg based on DOX, i.v.): 2.4 times | accumulation in liver tissues relative to cancer tissues ([3]; test group 3, 10 mg/kg based on DOX, i.v.): 6.7 times

COc1cccc2c1C(=O)c1c(O)c3c(c(O)c1C2=O)C[C@@](O)(C(=O)CO)C[C@@H]3O[C@H]1C[C@H](N)[C@H](O)[C@H](C)O1 [DOX, Doxorubicin hydrochloride]
location of fluorescence of anticancer agent (DOX) [4]: penetrated into the cell nucleus | location of fluorescence of anticancer agent (DOX) [5]: penetrated into the cell nucleus | IC50 ([1]; Homo sapiens, HT-29): 0.12 µM | survival rate in tumor cells versus normal cells ([2]; HT29 versus H9C2): no difference in the survival rate | IC50 ([2]; Rattus norvegicus, H9c2): 0.12 µM | red fluorescence (DOX) in cancer tissue sections ([3]; 4 mg/kg i.v., confocal, DAPI): hardly observed | fluorescence intensity in kidney tissues relative to cancer tissues ([3]; 4 mg/kg i.v., test group 1): 8.8 times | histochemical analysis of organ tissues (H&E) [6]: damaged severely | body weight decrease ([6]; 3 and 4 mg/kg): ≥ 9% | systemic toxicity [7]: severe systemic toxicity | hematotoxicity [8]: significant hematotoxicity | histochemical analysis of organ tissues (H&E) [8]: normal tissues were destroyed and damaged | all the mice died within ([8]; DOX 3 and 4 mg/kg): ≤ 20 days | levels of hemoglobin and hematocrit ([8]; DOX 3 and 4 mg/kg): outside normal ranges | body weight change [8]: rapid body weight decrease | histopathological analysis of cancer tissue ([9]; H&E, after treatment): relatively weak damage of the cancer tissue | TUNEL assay of cancer tissue (green fluorescence) ([9]; after treatment): weak green fluorescence | all the mice died within [9, 15]: ≤ 20 days | death observed within [9, 15]: ≤ 5 days

COc1cccc2c1C(=O)c1c(O)c3c(c(O)c1C2=O)C[C@@](O)(C(=O)CO)C[C@@H]3O[C@H]1C[C@H](NC(=O)[C@H](CC(C)C)NC(=O)[C@H](CCCNC(=N)N)NC(=O)[C@H](CCCNC(=N)N)NC(=O)[C@H](Cc2ccccc2)NC(C)=O)[C@H](O)[C@H](C)O1 [Example 4] (Ac-FRRL-{Doxorubicin(3'-N)})
IC50 [1]: 6.13 µM | survival rate of cancer cells ([1]; at 1 to 100 μM): 0% | viability at 48 h [10]: 80% | IC50 [2]: 182 µM | accumulation efficiency for cancer tissues (in vivo fluorescence imaging) ([3]; 4 mg/kg based on DOX, i.v., 9 hours, vs DOX alone or Comparative Example 3): significantly high accumulation efficiency for cancer tissues | cancer-targeting ability (fluorescence of isolated cancer tissue), times higher than DOX ([3]; 4 mg/kg based on DOX, i.v., test group 4 vs 1): 2.3 times | cancer-targeting ability (fluorescence of isolated cancer tissue), times higher than Comparative Example 3 ([3]; 4 mg/kg based on DOX, i.v., test group 4 vs 2): 1.4 times | accumulation in cancer tissues relative to kidney tissues ([3]; 4 and 10 mg/kg based on DOX, i.v., test groups 4 and 5): ≥ 2 times | accumulation efficiency for liver tissues, times lower than Comparative Example 3 ([3]; first of two printed values (4 and 10 mg/kg groups)): 2.4 times | accumulation efficiency for liver tissues, times lower than Comparative Example 3 ([3]; second of two printed values (4 and 10 mg/kg groups)): 4.8 times | red fluorescence in cancer tissue sections, times stronger than test group 1 [3, 16]: 6.7 times | red fluorescence in cancer tissue sections, times stronger than test group 3 [3, 16]: 2.6 times | histochemical analysis of organ tissues (H&E) [6]: no damaged organ tissue | body weight change ([6]; 4 and 10 mg/kg based on DOX): no significant change in body weight | hematotoxicity [8]: no hematotoxicity | histochemical analysis of organ tissues (H&E) [8]: no significant damage of organ tissues | all the mice survived healthily for ([8]; 4 and 10 mg/kg based on DOX): more than 26 days | body weight change [8]: no body weight change | systemic toxicity ([9]; repeated i.v. administration in tumor-bearing mice): no severe systemic toxicity

Cathepsin B (purchased from R&D Systems), enzyme in solution
RP-HPLC peaks of conjugate and cleavage product over reaction time [11]: a peak of L-DOX was observed at 14.7 minutes 3 hours after the reaction. The peak of the FRRL-DOX conjugate began to decrease and was not detected at all 24 hours after the reaction

Example 6: conjugate of N-terminally acylated peptide Phe-Leu-Arg-Arg-Gly (SEQ ID NO: 3) and doxorubicin; self-assembled prodrug nanoparticles (acyl-FLRRG-{DOX}; reading uncertain; also: printed as FLRRG-DOX)
anticancer agent (DOX) delivered into the nucleus (ratio of accumulation in the nucleus) ([12]; 48 h, fluorescence intensity nucleus vs cytoplasm): 21% | location of red fluorescence (DOX) in the cells ([12]; confocal images): mainly in the region other than the nucleus | degradation of prodrug nanoparticles in the cancer cells (MALDI-TOF) [13]: slightly low sensitivity to cathepsin B

B1: FLRRG-DOX conjugate / prodrug nanoparticles of Example 6 (N-acylated Phe-Leu-Arg-Arg-Gly conjugated with doxorubicin) (peptide)
peptide: FLRRG-{DOX}
modifications: not fully specified (N-terminus); printed as FLRRG-DOX
degradation ratio (%) [14]: < 5%

B2: FRRLG-DOX conjugate / prodrug nanoparticles of Example 5 (N-acylated Phe-Arg-Arg-Leu-Gly conjugated with doxorubicin) (peptide)
peptide: FRRLG-{DOX}
modifications: not fully specified (N-terminus); printed as FRRLG-DOX
degradation ratio (%) [14]: < 5%

— patent US20250281627A1, “CANCER-TARGETING PEPTIDE, PRODRUG NANOPARTICLES COMPRISING SAME, AND PHARMACEUTICAL COMPOSITION COMPRISING SAME FOR CANCER PREVENTION OR TREATMENT” (priority 2022, published 2025)
